# Measured values taken from patent US6774110B2, “Orally available peptidic thrombin inhibitors” (LG Life Sciences Ltd., priority 2001, dated 2004).
# Structures can show the parent of a compound that is named as a salt.
# Target: T1, thrombin (Homo sapiens, UniProt P00734)
# T1 construct: Thrombin used in this test was prepared from human plasma; from tissue; host or cells: human plasma
# Test: In vitro enzyme assay for determining thrombin inhibition constants (Chromozym TH substrate)
# Assay type: biochemical
# Settings: thrombin prepared from human plasma; Dixon plot; pH 7.8; read-out: Inhibition constant Ki
# Method: The activity of thrombin was measured spectrophotometrically using tosyl-Gly-Pro-Arg-p-nitroanilide acetate (Chromozym TH, Boehringer Mannheim) as a substrate. […] Each compound was dissolved in DMSO to make a 1 mM stock solution and dilutions were made thereof with assay buffer (0.1 M TrisHCl, 0.15 M NaCl, 0.1% polyethylene glycol 8000, pH 7.8). Different concentrations of inhibitor were mixed with 0.3 NIH units of thrombin in 0.8 mL of the buffer. The mixture was incubated for 10 min at room temperature before adding 0.2 mL of the substrate to a final concentration of 20 μM. […] A graph for the reciprocal value of initial velocity to the inhibitor concentration was derived from progress curves by fitting the data using a linear regression program. […]
row,Ki,Compound
1,0.01 nM,"N=C(N)c1ccc(CNC(=O)[C@@H]2CCCN2C(=O)[C@H](NS(=O)(=O)Cc2ccccc2)C(c2ccccc2)c2ccccc2)cc1 [Compound 41, N-benzylsulfonyl-D-diphenylalanyl-L-prolyl-[(4-amidinophenyl)methyl]amide.TFA]"
2,0.05 nM,"COC(=O)N[C@@H](C(=O)N1CCC[C@H]1C(=O)NCc1ccc(C(=N)N)c(F)c1)C(c1ccccc1)c1ccccc1 [Compound 35, N-methloxycarbonyl-D-diphenylalanyl-L-prolyl-[(4-amidino-3-fluorophenyl)methyl]amide.TFA]"
3,0.2 nM,"N=C(N)c1ccc(CNC(=O)[C@@H]2CCCN2C(=O)[C@H](NS(N)(=O)=O)C(c2ccccc2)c2ccccc2)cc1N [Compound 18, N-aminosulfonyl-D-diphenylalanyl-L-prolyl-[(4-amidino-3-aminophenyl)methyl]amide.TFA]"
4,0.52 nM,"COC(=O)N[C@@H](C(=O)N1CCC[C@H]1C(=O)NCc1ccc(C(=N)N)cc1)C1CCCCC1 [Compound 29, N-methoxycarbonyl-D-cyclohexylglycinyl-L-prolyl-[(4-amidinophenyl)methyl]amide.TFA]"
5,0.39 nM,"N=C(N)c1ccc(CNC(=O)[C@@H]2CCCN2C(=O)[C@@H](Cc2ccc(O)cc2)NS(N)(=O)=O)cc1 [Compound 20, N-aminosulfonyl-D-tyrosinyl-L-prolyl-[(4-amidinophenyl)methyl]amide.TFA]"
6,0.055 nM,"N=C(N)c1ccc(CNC(=O)[C@@H]2CCCN2C(=O)[C@H](NS(N)(=O)=O)C(c2ccccc2)c2ccccc2)nc1 [Compound 13, N-aminosulfonyl-D-diphenylalanyl-L-prolyl-(5-amidino-2-picolyl)amide.TFA]"
7,0.15 nM,"CP(C)(=O)N[C@@H](C(=O)N1CCC[C@H]1C(=O)NCc1ccc(C(=N)N)cc1)C(c1ccccc1)c1ccccc1 [Compound 44, N-dimethylphosphoryl-D-diphenylalanyl-L-prolyl-[(4-amidinophenyl)methyl]amide.TFA]"
8,0.03 nM,"N=C(N)c1ccc(CNC(=O)[C@@H]2CCCN2C(=O)[C@H](NS(N)(=O)=O)C(c2ccccc2)c2ccccc2)cc1F [Compound 15, N-aminosulfonyl-D-diphenylalanyl-L-prolyl-[(4-amidino-3-fluorophenyl)methyl]amide.TFA]"
9,0.04 nM,"N=C(N)c1ccc(CNC(=O)[C@@H]2CCCN2C(=O)[C@H](NC(=O)OCc2ccccc2)C(c2ccccc2)c2ccccc2)cc1 [Compound 24, N-benzyloxycarbonyl-D-diphenylalanyl-L-prolyl-[(4-amidinophenyl)methyl]amide.TFA]"
10,0.66 nM,"N=C(N)c1ccc(CNC(=O)[C@@H]2CCCN2C(=O)[C@@H](CC2CCCCC2)NS(N)(=O)=O)cc1 [Compound 7, N-aminosulfonyl-D-cyclohexylalanyl-L-prolyl-[(4-amidinophenyl)methyl]amide.TFA]"
11,0.035 nM,"N=C(N)c1ccc(CNC(=O)[C@@H]2CCN2C(=O)[C@H](NS(N)(=O)=O)C(c2ccccc2)c2ccccc2)cc1 [Compound 5, N-aminosulfonyl-D-diphenylalanyl-L-azetidine-2-carboxyl-[(4-amidinophenyl)methyl]amide.TFA]"
12,4.2 nM,"NCc1ccc(CNC(=O)[C@@H]2CCCN2C(=O)[C@H](NS(N)(=O)=O)C(c2ccccc2)c2ccccc2)cc1 [Compound 2, N-aminosulfonyl-D-diphenylalanyl-L-prolyl-[(4-aminomethylphenyl)methyl]amide.HCl]"
13,0.91 nM,"COC(=O)N[C@H](CC1CCCCC1)C(=O)N1CCC[C@H]1C(=O)NCc1ccc(C(=N)N)cc1 [Compound 30, N-methoxycarbonyl-D-cyclohexylalanyl-L-prolyl-[(4-amidinophenyl)methyl]amide.TFA]"

row,Compound,Ki
1,"COP(=O)(N[C@@H](C(=O)N1CCC[C@H]1C(=O)NCc1ccc(C(=N)N)cc1)C(c1ccccc1)c1ccccc1)OC [Compound 43, N-dimethoxyphosphoryl-D-diphenylalanyl-L-prolyl-[(4-amidinophenyl)methyl]amide.TFA]",0.011 nM
